In assay [1] the target is LRRK2 wild type enzyme (Homo sapiens, UniProt Q5S007). Description: Biochemical Assay: LRRK2 TR-FRET (LanthaScreen) kinase assay with LRRKtide substrate. The conditions noted are these: LRRK2 Inhibition, Table 8. In short, it runs like this:
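Human wild-type LRRK2 (3 nM) preincubated 15 min with compound (11-point, 3-fold, top 10 μM), then reacted 120 min at 23 °C with 400 nM LRRKtide and 25 μM ATP, pH 8.0. Stopped with EDTA; Tb-anti-pLRRKtide TR-FRET read after 30 min.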

For assay [2], the target named is T1, wild type LRRK2 overexpressed in recombinant HEK-293T cells (Homo sapiens, UniProt Q5S007).
T1 construct: host or cells: HEK293T (transient transfection with pCMV-LRRK2 WT plasmid)
Description: pS935 LRRK2 Cell Assay (HTRF, phospho-LRRK2 Ser935). The conditions noted are these: LRRK2 Inhibition, Table 8, 2 hours compound incubation. The assay is classed as cell-based. The method, boiled down:
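HEK-293T cells transiently transfected with wild-type LRRK2 for 24 h, plated overnight, then treated 2 h at 37° C with compound (top 10 μM, 3-fold, 9 doses, duplicates, 0.2% DMSO). Lysates probed overnight at 23° C by sandwich HTRF for pSer935; 665/615 nm ratio read.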

Sequence of LRRK2 wild type enzyme (Q5S007 whole entry): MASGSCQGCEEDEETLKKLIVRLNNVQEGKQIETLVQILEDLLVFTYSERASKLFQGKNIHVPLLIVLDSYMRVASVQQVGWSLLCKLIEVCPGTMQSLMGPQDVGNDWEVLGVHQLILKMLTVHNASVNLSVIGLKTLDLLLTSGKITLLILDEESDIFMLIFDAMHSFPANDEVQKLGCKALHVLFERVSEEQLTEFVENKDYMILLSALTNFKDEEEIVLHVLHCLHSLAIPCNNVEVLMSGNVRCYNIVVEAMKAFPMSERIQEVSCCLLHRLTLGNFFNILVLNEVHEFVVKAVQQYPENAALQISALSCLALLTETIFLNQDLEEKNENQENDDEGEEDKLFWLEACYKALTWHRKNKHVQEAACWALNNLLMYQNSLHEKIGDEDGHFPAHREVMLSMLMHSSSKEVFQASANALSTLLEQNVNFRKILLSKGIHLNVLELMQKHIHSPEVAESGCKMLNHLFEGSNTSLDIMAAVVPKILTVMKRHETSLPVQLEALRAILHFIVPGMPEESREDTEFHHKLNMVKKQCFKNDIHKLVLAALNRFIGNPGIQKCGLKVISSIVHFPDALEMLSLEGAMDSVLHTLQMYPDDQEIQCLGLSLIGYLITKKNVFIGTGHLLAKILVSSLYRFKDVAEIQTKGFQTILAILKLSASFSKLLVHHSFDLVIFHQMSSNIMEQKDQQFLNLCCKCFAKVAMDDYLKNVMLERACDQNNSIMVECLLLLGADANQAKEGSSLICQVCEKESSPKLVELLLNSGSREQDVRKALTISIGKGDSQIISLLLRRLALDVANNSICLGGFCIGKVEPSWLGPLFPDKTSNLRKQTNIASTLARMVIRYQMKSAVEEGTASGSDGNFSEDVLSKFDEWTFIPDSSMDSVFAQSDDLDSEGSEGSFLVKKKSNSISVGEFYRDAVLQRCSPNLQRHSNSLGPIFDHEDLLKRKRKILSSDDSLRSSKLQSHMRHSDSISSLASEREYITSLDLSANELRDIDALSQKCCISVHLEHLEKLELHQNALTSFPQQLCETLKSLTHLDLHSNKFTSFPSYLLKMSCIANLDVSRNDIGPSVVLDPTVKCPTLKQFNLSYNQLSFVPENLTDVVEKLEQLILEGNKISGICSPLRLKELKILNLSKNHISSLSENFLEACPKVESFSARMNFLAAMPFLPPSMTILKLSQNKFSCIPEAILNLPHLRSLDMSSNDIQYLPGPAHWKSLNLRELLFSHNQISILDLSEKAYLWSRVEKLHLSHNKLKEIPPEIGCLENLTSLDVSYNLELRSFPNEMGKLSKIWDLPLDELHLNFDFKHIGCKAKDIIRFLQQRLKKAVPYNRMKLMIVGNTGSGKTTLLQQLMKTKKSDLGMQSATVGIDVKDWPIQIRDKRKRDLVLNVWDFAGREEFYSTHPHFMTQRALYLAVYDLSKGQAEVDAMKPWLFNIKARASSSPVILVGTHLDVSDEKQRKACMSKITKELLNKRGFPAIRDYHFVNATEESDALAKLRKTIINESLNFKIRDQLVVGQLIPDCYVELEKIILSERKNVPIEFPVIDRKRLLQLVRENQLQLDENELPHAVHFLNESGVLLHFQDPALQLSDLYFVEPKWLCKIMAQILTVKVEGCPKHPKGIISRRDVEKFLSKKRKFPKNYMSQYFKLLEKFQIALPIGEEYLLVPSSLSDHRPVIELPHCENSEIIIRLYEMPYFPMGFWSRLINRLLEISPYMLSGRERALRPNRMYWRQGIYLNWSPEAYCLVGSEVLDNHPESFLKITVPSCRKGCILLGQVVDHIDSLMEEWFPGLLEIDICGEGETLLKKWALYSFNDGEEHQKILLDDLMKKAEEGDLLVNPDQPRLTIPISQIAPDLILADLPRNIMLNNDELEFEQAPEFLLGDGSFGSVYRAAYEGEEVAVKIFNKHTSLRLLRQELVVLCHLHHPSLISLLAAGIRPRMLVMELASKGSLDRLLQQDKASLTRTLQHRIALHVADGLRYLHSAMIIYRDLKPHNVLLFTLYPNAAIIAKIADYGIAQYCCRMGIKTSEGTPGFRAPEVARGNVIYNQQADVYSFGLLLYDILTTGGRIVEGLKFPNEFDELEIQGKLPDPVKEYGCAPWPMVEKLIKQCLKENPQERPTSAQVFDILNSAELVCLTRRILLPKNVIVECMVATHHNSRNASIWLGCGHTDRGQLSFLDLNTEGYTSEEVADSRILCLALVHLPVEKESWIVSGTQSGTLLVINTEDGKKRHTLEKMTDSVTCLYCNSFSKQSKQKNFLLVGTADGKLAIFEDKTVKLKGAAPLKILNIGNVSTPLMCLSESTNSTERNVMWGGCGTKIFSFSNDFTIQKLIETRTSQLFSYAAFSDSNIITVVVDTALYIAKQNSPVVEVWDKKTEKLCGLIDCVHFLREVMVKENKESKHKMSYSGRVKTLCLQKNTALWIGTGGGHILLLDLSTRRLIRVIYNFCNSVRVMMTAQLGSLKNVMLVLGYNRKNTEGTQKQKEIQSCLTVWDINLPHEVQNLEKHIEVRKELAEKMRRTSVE
T1 sequence (Q5S007 whole entry): as above

As for `C[C@@H]1C[C@H](n2c(CC(=O)NCc3cc(C4CC4)on3)nc3cnc4ccc(C#N)cc4c32)CCO1` [Compound 161, 2-{8-cyano-1-[(2R,4R)-2-methyloxan-4-yl]-1H-imidazo[4,5-c]quinolin-2-yl}-N-[(5-cyclopropyl-1,2-oxazol-3-yl)methyl]acetamide], the IC50 in assay [1] worked out at 0.356 nM; in assay [2] it was 4.38 nM.
Consider `C[C@@H]1C[C@H](n2c(CC(=O)Nc3ccno3)nc3cnc4ccc(Cl)cc4c32)CCO1` [Compound 351, N-5-isoxazolyl{3-[(2R,4R)-2-methyltetrahydro-2H-pyran-4-yl]-12-chloro-3,5,8-triazatricyclo[7.4.0.0^2,6]trideca-1(9),2(6),4,7,10,12-hexaen-4-yl}acetamide], for which the 50% inhibitory concentration (IC50) in assay [1] stood at 0.597 nM; in assay [2], 10.4 nM.
`C[C@@H]1C[C@H](n2c(CC(=O)Nc3ccnn(C)c3=O)nc3cnc4ccc(C#N)cc4c32)CCO1` [Compound 215, N-(2-methyl-3-oxo-2,3-dihydro-4-pyridazinyl){3-[(2R,4R)-2-methyltetrahydro-2H-pyran-4-yl]-12-cyano-3,5,8-triazatricyclo[7.4.0.0^2,6]trideca-1,4,6,8,10,12-hexaen-4-yl}acetamide]: the figures for the IC50 in assay [1] and in assay [2] were 0.438 nM and 5.85 nM, respectively.
With `C[C@@H]1C[C@H](n2c(CC(=O)NC3(c4ccccn4)CC3)nc3cnc4ccc(C#N)cc4c32)CCO1` [Compound 363, N-[1-(2-pyridyl)cyclopropyl]{3-[(2R,4R)-2-methyltetrahydro-2H-pyran-4-yl]-12-cyano-3,5,8-triazatricyclo[7.4.0.0^2,6]trideca-1,4,6,8,10,12-hexaen-4-yl}acetamide], the values for the IC50 in assay [1] and in assay [2] were 0.533 nM and 2.05 nM, respectively.
For `COc1ccc2ncc3nc(CC(=O)NC4CC4)n([C@@H]4CCO[C@H](C)C4)c3c2c1` [Compound 160, N-cyclopropyl-2-{8-methoxy-1-[(2R,4R)-2-methyloxan-4-yl]-1H-imidazo[4,5-c]quinolin-2-yl}acetamide], in that order: 2.82 nM and 332 nM.
In the case of `Cc1cnc(NC(=O)Cc2nc3cnc4ccc(C#N)cc4c3n2[C@@H]2CCO[C@H](C)C2)cn1` [Compound 315, N-(5-methyl-2-pyrazinyl){3-[(2R,4R)-2-methyltetrahydro-2H-pyran-4-yl]-12-cyano-3,5,8-triazatricyclo[7.4.0.0^2,6]trideca-1(9),2(6),4,7,10,12-hexaen-4-yl}acetamide], the IC50 was found to be 0.471 nM in assay [1] and 2.52 nM in assay [2].
For `C[C@@H]1C[C@H](n2c(CC(=O)NC3CCCCC3)nc3cnc4ccc(C#N)cc4c32)CCO1` [Compound 309, N-cyclohexyl{3-[(2R,4R)-2-methyltetrahydro-2H-pyran-4-yl]-12-cyano-3,5,8-triazatricyclo[7.4.0.0^2,6]trideca-1,4,6,8,10,12-hexaen-4-yl}acetamide], in that order: 0.635 nM and 14.4 nM.
Consider `C[C@@H]1C[C@H](n2c(C3CC(=O)N(c4ccn(C)n4)C3)nc3cnc4ccc(C#N)cc4c32)CCO1` (stereo partly drawn) [Compound 100, 2-[1-(1-methyl-1H-pyrazol-3-yl)-5-oxopyrrolidin-3-yl]-1-[(2R,4R)-2-methyloxan-4-yl]-1H-imidazo[4,5-c]quinoline-8-carbonitrile], for which the half-maximal inhibitory concentration (IC50) in assay [1] turned out to be 2.14 nM; in assay [2], 143 nM.
The like results for `C[C@@H]1C[C@H](n2c(CC(=O)NC3CC34CC4)nc3cnc4ccc(C#N)cc4c32)CCO1` (stereo partly drawn) [Compound 249, N-1-spiro[2.2]pentyl{3-[(2R,4R)-2-methyltetrahydro-2H-pyran-4-yl]-12-cyano-3,5,8-triazatricyclo[7.4.0.0^2,6]trideca-1(9),2(6),4,7,10,12-hexaen-4-yl}acetamide] were, in that order, 0.691 nM and 17.4 nM.
The like results for `C[C@@H]1C[C@H](n2c(CC(=O)Nc3cncc(C#N)c3)nc3cnc4ccc(C#N)cc4c32)CCO1` [Compound 284, N-(5-cyano-3-pyridyl){3-[(2R,4R)-2-methyltetrahydro-2H-pyran-4-yl]-12-cyano-3,5,8-triazatricyclo[7.4.0.0^2,6]trideca-1,4,6,8,10,12-hexaen-4-yl}acetamide] were, in that order, 0.538 nM and 20 nM.
`Cc1nocc1NC(=O)Cc1nc2cnc3ccc(C#N)cc3c2n1[C@@H]1CCO[C@H](C)C1` [Compound 238, N-(3-methyl-4-isoxazolyl){3-[(2R,4R)-2-methyltetrahydro-2H-pyran-4-yl]-12-cyano-3,5,8-triazatricyclo[7.4.0.0^2,6]trideca-1,4,6,8,10,12-hexaen-4-yl}acetamide]: the IC50 came to 0.415 nM in assay [1] and 7.15 nM in assay [2].
As for `C[C@@H]1C[C@H](n2c(CC(=O)Nc3cc(C(C)(C)F)no3)nc3cnc4ccc(C#N)cc4c32)CCO1` [Compound 341, N-[3-(1-fluoro-1-methylethyl)-5-isoxazolyl]{3-[(2R,4R)-2-methyltetrahydro-2H-pyran-4-yl]-12-cyano-3,5,8-triazatricyclo[7.4.0.0^2,6]trideca-1(9),2(6),4,7,10,12-hexaen-4-yl}acetamide], the IC50 in assay [1] is 0.423 nM; in assay [2], 8.13 nM.
The like results for `C[C@@H]1C[C@H](n2c([C@H]3CN(CC4CC4)S(=O)(=O)C3)nc3cnc4ccc(C#N)cc4c32)CCO1` [Compound 2, 2-[(4R)-2-(cyclopropylmethyl)-1,1-dioxo-1λ^6,2-thiazolidin-4-yl]-1-[(2R,4R)-2-methyloxan-4-yl]-1H-imidazo[4,5-c]quinoline-8-carbonitrile] were, in that order, 0.662 nM and 39.2 nM.
For `C[C@@H]1C[C@H](n2c(CC(=O)Nc3cnccn3)nc3cnc4ccc(C#N)cc4c32)CCO1` [Compound 337, N-2-pyrazinyl{3-[(2R,4R)-2-methyltetrahydro-2H-pyran-4-yl]-12-cyano-3,5,8-triazatricyclo[7.4.0.0^2,6]trideca-1,4,6,8,10,12-hexaen-4-yl}acetamide], in that order: 0.337 nM and 1.61 nM.
For `C[C@@H]1C[C@H](n2c(CC(=O)Nc3cccnc3O)nc3cnc4ccc(C#N)cc4c32)CCO1` [Compound 218, N-(2-hydroxy-3-pyridyl){3-[(2R,4R)-2-methyltetrahydro-2H-pyran-4-yl]-12-cyano-3,5,8-triazatricyclo[7.4.0.0^2,6]trideca-1,4,6,8,10,12-hexaen-4-yl}acetamide], in that order: 0.45 nM and 83.5 nM.
`Cc1ccc2ncc3nc(CC(=O)NC4CC4)n([C@@H]4CCO[C@H](C)C4)c3c2c1` [Compound 191, N-cyclopropyl-2-{8-methyl-1-[(2R,4R)-2-methyloxan-4-yl]-1H-imidazo[4,5-c]quinolin-2-yl}acetamide]: the IC50 in assay [1] was 0.961 nM; in assay [2] it was 65.6 nM.
For `Cc1oncc1NC(=O)Cc1nc2cnc3ccc(C#N)cc3c2n1[C@@H]1CCO[C@H](C)C1` [Compound 209, N-(5-methyl-4-isoxazolyl){3-[(2R,4R)-2-methyltetrahydro-2H-pyran-4-yl]-12-cyano-3,5,8-triazatricyclo[7.4.0.0^2,6]trideca-1,4,6,8,10,12-hexaen-4-yl}acetamide], in that order: 0.427 nM and 13.2 nM.
For the compound `C[C@@H]1C[C@H](n2c(CC(=O)Nc3cccn(C)c3=O)nc3cnc4ccc(C#N)cc4c32)CCO1` [Compound 263, N-(1-methyl-2-oxo-1,2-dihydro-3-pyridyl){3-[(2R,4R)-2-methyltetrahydro-2H-pyran-4-yl]-12-cyano-3,5,8-triazatricyclo[7.4.0.0^2,6]trideca-1,4,6,8,10,12-hexaen-4-yl}acetamide], the IC50 was found to be 0.476 nM in assay [1] and 8.93 nM in assay [2].
For `CCNC(=O)Cc1nc2cnc3ccc(C#N)cc3c2n1[C@@H]1CCO[C@H](C)C1` [Compound 6, 2-{8-cyano-1-[(2R,4R)-2-methyloxan-4-yl]-1H-imidazo[4,5-c]quinolin-2-yl}-N-ethylacetamide], in that order: 0.58 nM and 48.7 nM.
For the compound `CC(C)Oc1ccc(NC(=O)Cc2nc3cnc4ccc(C#N)cc4c3n2[C@@H]2CCO[C@H](C)C2)cn1` [Compound 273, N-(6-isopropoxy-3-pyridyl){3-[(2R,4R)-2-methyltetrahydro-2H-pyran-4-yl]-12-cyano-3,5,8-triazatricyclo[7.4.0.0^2,6]trideca-1,4,6,8,10,12-hexaen-4-yl}acetamide], the IC50 in assay [1] amounted to 0.478 nM; in assay [2], 5.59 nM.
As for `CN1CC(n2c(CC(=O)NCC3CC3)nc3cnc4ccc(C#N)cc4c32)CCC1=O` (single isomer, unassigned) [Compound 91], the IC50 in assay [1] was determined as 40.4 nM; in assay [2], 6910 nM.
`C[C@@H]1C[C@H](n2c(CC(=O)N[C@@H]3C[C@@H]3F)nc3cnc4ccc(C#N)cc4c32)CCO1` [Compound 290, N-[(1R,2S)-2-fluorocyclopropyl]{3-[(2R,4R)-2-methyltetrahydro-2H-pyran-4-yl]-12-cyano-3,5,8-triazatricyclo[7.4.0.0^2,6]trideca-1,4,6,8,10,12-hexaen-4-yl}acetamide]: the values for the IC50 in assay [1] and in assay [2] were 0.567 nM and 33.4 nM, respectively.
As to `C[C@@H]1C[C@H](n2c(CC(=O)NCC3COC3)nc3cnc4ccc(C#N)cc4c32)CCO1` [Compound 177, 2-{8-cyano-1-[(2R,4R)-2-methyloxan-4-yl]-1H-imidazo[4,5-c]quinolin-2-yl}-N-[(oxetan-3-yl)methyl]acetamide], the values for the IC50 in assay [1] and in assay [2] were 0.524 nM and 124 nM, respectively.

One may read the IC50 as the point on the concentration scale where inhibition reaches its midpoint.

Source of the values: patent US20250270209A1 (INTERLINE THERAPEUTICS, INC., priority 2022, published 2025).
